Key:
[1] = target: T1, 3-hydroxy-3-methylglutaryl-CoA synthase (HMGS) (Homo sapiens, UniProt Q01581); conditions: cited from earlier work
T1 sequence (Q01581 1-520): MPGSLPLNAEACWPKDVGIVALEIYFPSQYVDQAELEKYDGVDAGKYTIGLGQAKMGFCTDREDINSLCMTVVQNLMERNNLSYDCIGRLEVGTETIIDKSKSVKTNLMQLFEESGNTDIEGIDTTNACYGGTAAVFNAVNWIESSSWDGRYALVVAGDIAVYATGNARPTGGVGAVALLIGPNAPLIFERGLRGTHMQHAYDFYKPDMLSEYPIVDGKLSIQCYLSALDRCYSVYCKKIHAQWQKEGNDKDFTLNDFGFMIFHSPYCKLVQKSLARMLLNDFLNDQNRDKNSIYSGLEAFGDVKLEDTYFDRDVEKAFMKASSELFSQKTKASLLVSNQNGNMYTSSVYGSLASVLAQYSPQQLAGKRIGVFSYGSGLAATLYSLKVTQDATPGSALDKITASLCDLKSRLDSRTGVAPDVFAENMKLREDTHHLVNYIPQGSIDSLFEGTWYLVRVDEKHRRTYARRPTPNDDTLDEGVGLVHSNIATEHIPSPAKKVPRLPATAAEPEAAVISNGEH

[2] = tested on: S. tropica 20S proteasome; experiment: 20S Proteasome Activity Assay (Chemicon), cleavage of LLVY-AMC; assay type: biochemical; conditions: preliminary experiments, FIG. 19
Excerpt: (§1) Inhibition of the 20S proteasome will also be measured 20S for all new salinosporamides. The CHEMICON Proteasome Activity Assay Kit by Chemicon International provides a system that is designed to detect the chymotrypsin-like activity of the yeast 20S proteasome through the release of the fluorophore AMC (7-amino-4-methylcoumarin) from the specific substrate Suc-LLVY-AMC after cleavage. AMC can be detected using a fluorometer with a 380 nm excitation and a 460 nm emission filter. For inhibitor screening, the test sample is added to the assay plate and fluorescence read, looking for a reduction in proteasome activity.
(§2) The ubiquitin-proteasome pathway involves the 26S proteasome, which is formed by the barrel-shaped 20S proteasome (about 700 kDa) and two 19S (about 700 kDa) regulatory complexes on each end of the 20S proteasome. […] Cleavage of the free flourophore, 7-Amino-4-methylcoumarin (AMC) from LLVY can be detected and quantified using a 380/460 nm filter set in a flourmeter. […]
(§3) The present invention describes the biosynthesis of SalJ (FIG. 16). […] Yet, the assembled-recombinant 20S proteasome with the SalJ β-subunit (far right two bars) confers resistance to at least SalA as there was no substantial measurable difference in the level of fluorescence of the free AMC (FIG. 19) in the presence or absence of SalA. […]

[3] = target: T2, yeast 20S proteasome (Saccharomyces cerevisiae, UniProt P30656); experiment: as above; assay type: biochemical; conditions: preliminary experiments, FIG. 19
T2 construct: minus the N-terminal propeptide that is cleaved off autocatalytically during assembly; purchased Chemicon International
Excerpt: as §1, §2, §3

[4] = tested on: assembled 20S proteasome from recombinant subunits containing the SalJ β-subunit; experiment: as above; assay type: biochemical, S. tropica; conditions: assembled recombinant 20S proteasome with SalJ β-subunit (Ala→Val at residue 49); FIG. 19
Excerpt: as §1, §2, §3

[5] = tested on: multiple myeloma cells that have become refractory to bortezomib therapy; conditions: cited from earlier work
[6] = tested on: colon, pancreatic, and lung cancers; conditions: cited from earlier work
[7] = tested on: animal tumor models; conditions: cited from earlier work
[8] = target: purified 20S proteasome (Homo sapiens, UniProt P28074); conditions: read-out: IC50 against purified 20S proteasome; cited from earlier work

## CC(=C\C(=O)O)/C=C(\C)C[C@H](C)CCCC[C@H]1OC(=O)[C@@H]1CO [F-244]
[1]
  IC50: 35 nM

## C[C@@]12OC(=O)[C@]1([C@@H](O)[C@@H]1C=CCCC1)NC(=O)[C@@H]2CCCl [salinosporamide A]
[2]
  inhibition of 20S proteasome (fluorescence of free AMC): inhibited
[3]
  inhibition of 20S proteasome (fluorescence of free AMC): inhibited
[4]
  inhibition of 20S proteasome (fluorescence of free AMC): not inhibited
[5]
  induction of apoptosis: induces apoptosis
[6]
  efficacy in animal models: efficacious
[7]
  oral activity: orally active
  survival: prolongs survival
  tolerability: well tolerated

## CC(C)[C@H](O)[C@@]12NC(=O)[C@H](C)[C@@H]1OC2=O [omuralide, clasto-lactacystin-β-lactone, reference compound]
[8]
  IC50: 49 nM

Reference: US20090325208A1 (priority 2006, published 2009)
